Measured values from the supplement of paper PMC13380429.

How the values were obtained:
[1] = system: A549-ACE2 infected with SARS-CoV-2; test: cell count relative to DMSO; higher = less toxic; settings: 24 h
A549-ACE2 = test: drug-induced phospholipidosis relative to tamoxifen; higher = more phospholipidosis
Vero E6 [2] = test: drug sensitivity score (DSS) for viability; higher = more toxic; extreme values may be limits of the assay; settings: 72 h
HepG2 [3] = test: as above; settings: 72 h
Caco-2 [4] = test: as above; settings: 72 h
U2OS [5] = test: as above; settings: 72 h
Vero E6 [6] = test: cell viability relative to DMSO; higher = less toxic; settings: 72 h
HepG2 [7] = test: as above; settings: 72 h
Caco-2 [8] = test: as above; settings: 72 h
U2OS [9] = test: as above; settings: 72 h
[10] = system: A549-ACE2 infected with SARS-CoV-2; test: morphology score (similarity to uninfected cells); higher = more like uninfected cells; settings: 24 h
Vero E6 [11] = test: relative viability EC50 (midpoint between 100% and the lowest measured viability); higher = less toxic; settings: 72 h
HepG2 [12] = test: as above; settings: 72 h
Caco-2 [13] = test: as above; settings: 72 h
U2OS [14] = test: as above; settings: 72 h
[15] = system: A549-ACE2 infected with SARS-CoV-2; test: SARS-CoV-2 infection rate relative to DMSO; higher = more infection; settings: 24 h
Calu-3 [16] = test: drug sensitivity score (DSS) for viability; higher = more toxic; extreme values may be limits of the assay; settings: 72 h
Calu-3 [17] = test: cell viability relative to DMSO; higher = less toxic; settings: 72 h
Calu-3 [18] = test: relative viability EC50 (midpoint between 100% and the lowest measured viability); higher = less toxic; settings: 72 h

C=C1C(=O)O[C@@H]2C[C@@]3(C)CCC[C@H](C)C3=C[C@H]12 [alantolactone]
Settings	SARS-CoV-2 infection rate, [15] [%]	cell count, [1] [%]	cell viability, Caco-2 [8] [%]	cell viability, HepG2 [7] [%]	cell viability, U2OS [9] [%]	cell viability, Vero E6 [6] [%]	morphology score, [10]
1 nM	–	–	94.9	94.8	99.2	94.7	–
10 nM	–	–	99	102	96.4	95.8	–
100 nM	–	–	101	106	101	95.8	–
0.3 µM	104	100	–	–	–	–	0.1
1000 nM	–	–	99.8	104	96.4	96.8	–
3 µM	92	98	–	–	–	–	-0.12
10 µM	91	97	–	–	–	–	-0.07
10000 nM	–	–	89.7	117	96.6	101	–
30 µM	35	9	–	–	–	–	0.21

drug-induced phospholipidosis [%], A549-ACE2
Settings	0.3 µM	0.833333 µM	3.33333 µM	6.66667 µM	10 µM	30 µM
24 h	0.44	-0.52	-2.33	-1.69	-1.05	3.99
48 h	0.11	-0.81	-1.92	-1	0.04	3.39
72 h	2.31	-0.225	-1.83	-1.58	0.848	3.9

Settings	drug sensitivity score	relative viability EC50 [µM]
Caco-2 [4]	0	–
Caco-2 [13]	–	> 10
HepG2 [3]	0	–
HepG2 [12]	–	> 10
U2OS [5]	0	–
U2OS [14]	–	> 10
Vero E6 [2]	0	–
Vero E6 [11]	–	> 10

O=C(O)CCCCCCCC(=O)O [azelaic-acid]
Settings	SARS-CoV-2 infection rate, [15] [%]	cell count, [1] [%]	cell viability, Caco-2 [8] [%]	cell viability, HepG2 [7] [%]	cell viability, U2OS [9] [%]	morphology score, [10]
1 nM	–	–	105	102	101	–
10 nM	–	–	97	92.3	103	–
100 nM	–	–	103	115	99.4	–
0.3 µM	94	103	–	–	–	0.2
1000 nM	–	–	105	96.4	106	–
3 µM	100	95	–	–	–	-0.03
10 µM	98	102	–	–	–	0.06
10000 nM	–	–	95.6	99	97.7	–
30 µM	103	102	–	–	–	0.01

drug-induced phospholipidosis [%], A549-ACE2
Settings	0.3 µM	0.833333 µM	3.33333 µM	6.66667 µM	10 µM	30 µM
24 h	-0.21	-0.53	-0.9	-0.71	-1.82	0.53
48 h	0.97	-0.84	-1.1	0.62	-0.42	2.28
72 h	3.56	0.0211	0.507	0.701	1.19	4.29

Settings	drug sensitivity score	relative viability EC50 [µM]
Caco-2 [4]	0	–
Caco-2 [13]	–	> 10
HepG2 [3]	0	–
HepG2 [12]	–	> 10
U2OS [5]	0	–
U2OS [14]	–	> 10

CCCN1CCN(c2ccc(C(=O)NC3(C(=O)NCC#N)CCCCC3)cc2)CC1 [balicatib]
Settings	SARS-CoV-2 infection rate, [15] [%]	cell count, [1] [%]	cell viability, Caco-2 [8] [%]	cell viability, Calu-3 [17] [%]	cell viability, HepG2 [7] [%]	cell viability, U2OS [9] [%]	cell viability, Vero E6 [6] [%]	morphology score, [10]
1 nM	–	–	107	108	90	100	99.7	–
10 nM	–	–	101	100	103	99.7	108	–
100 nM	–	–	102	98.8	114	95	108	–
0.3 µM	86	107	–	–	–	–	–	0.39
1000 nM	–	–	95.4	108	104	103	98.1	–
3 µM	45	116	–	–	–	–	–	0.76
10 µM	33	119	–	–	–	–	–	0.78
10000 nM	–	–	106	110	101	95.4	105	–
30 µM	20	117	–	–	–	–	–	0.83

drug-induced phospholipidosis [%], A549-ACE2
Settings	0.3 µM	0.833333 µM	3.33333 µM	6.66667 µM	10 µM	30 µM
24 h	1.43	-0.89	1.98	6.47	8.06	17.1
48 h	1.09	-1.16	0.49	4.83	7.84	17.9
72 h	4.12	-0.524	1.07	5.37	8.73	20.4

Settings	drug sensitivity score	relative viability EC50 [µM]
Caco-2 [4]	0	–
Caco-2 [13]	–	> 10
Calu-3 [16]	0	–
Calu-3 [18]	–	> 10
HepG2 [3]	0	–
HepG2 [12]	–	> 10
U2OS [5]	0	–
U2OS [14]	–	> 10
Vero E6 [2]	0	–
Vero E6 [11]	–	> 10
